# Experimental data taken from patent publication US8841425B2, “Cytotoxic agents comprising new maytansinoids” (ImmunoGen, Inc., priority 2003, dated 2014).
# How the values were obtained:
# [1] = tested on: CD19-positive Ramos human tumor cells; experiment: MTT-based cytotoxicity of huB4-DM4, Ramos cells; format: cell-based; settings: MTT-based assay, FIG. 12
# Procedure: (§1) The cytotoxicity of huB4-DM4 toward CD19-expressing cells (Ramos) compared to a CD19-negative cell line (Colo 205) was tested using an MTT-based assay, where cell killing activity is determined by quantifying the number of viable cells that remain following treatment with conjugate. Viable cell number is determined by spectrophotometric quantitation following incubation of the cells with the vital dye MTT.
# [2] = target: T1, CD19 (Homo sapiens, UniProt P15391); experiment: Binding affinity of huB4 conjugate by flow cytometry; settings: after conjugation
# T1 sequence (P15391 20-556): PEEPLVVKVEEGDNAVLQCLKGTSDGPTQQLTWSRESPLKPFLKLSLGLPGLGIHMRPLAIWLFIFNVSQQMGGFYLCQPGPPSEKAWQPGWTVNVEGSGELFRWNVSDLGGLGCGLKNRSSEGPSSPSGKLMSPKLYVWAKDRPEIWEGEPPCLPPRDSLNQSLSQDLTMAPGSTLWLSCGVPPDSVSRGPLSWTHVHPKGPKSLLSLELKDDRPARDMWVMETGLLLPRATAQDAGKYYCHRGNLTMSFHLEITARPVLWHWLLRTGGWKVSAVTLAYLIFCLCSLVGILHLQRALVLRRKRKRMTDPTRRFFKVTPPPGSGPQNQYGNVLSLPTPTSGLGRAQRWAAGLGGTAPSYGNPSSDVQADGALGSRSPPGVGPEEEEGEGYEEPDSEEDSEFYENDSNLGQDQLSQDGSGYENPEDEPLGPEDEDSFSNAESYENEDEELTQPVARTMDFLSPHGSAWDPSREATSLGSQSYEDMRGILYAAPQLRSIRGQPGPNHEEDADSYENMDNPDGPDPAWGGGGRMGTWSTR
# Procedure: A solution of huB4 antibody at a concentration of 20 mg/mL was incubated for 1.5 h with an 8-fold molar excess of SSNPB [sulfosuccinimidyl 4-(5′-nitro-2′-pyridyldithio)butyrate] in 50 mM potassium phosphate buffer, pH 6.5 containing 2 mM ethylenediaminetetraacetic acid (buffer A) with 5% dimethylacetamide. The modified antibody was purified by passage through a Sephadex G25 gel filtration column equilibrated in buffer A and the concentration of the purified antibody was determined spectrophotometrically using the extinction coefficient for the antibody at 280 nm (199,560 M^−1 cm^−1). The modified antibody was diluted to 8 mg/mL with buffer A and incubated for 3 h at ambient temperature with a 1.7-fold molar excess of DM4, which was added to the reaction mixture as a stock solution in dimethylacetamide (final concentration of dimethylacetamide was 3% v/v). […] The concentration of conjugate was determined spectrophotometrically using the know extinction coefficients for antibody (ε280 nm: 199,560 M^−1 cm^−1; ε252 nm: 67,850 M^−1 cm^−1) and DM4 (ε280 nm=5,700 M^−1 cm^−1, ε252 […]=26,790 M^−1 cm^−1). […] The amount of drug associated with the antibody that was not linked covalently (free drug) was determined by HPLC analysis and was approximately 2% of the total linked drug.
# [3] = tested on: CD19-negative cell line (Colo 205); experiment: MTT-based cytotoxicity of huB4-DM4, Colo 205 cells; format: cell-based, human; settings: MTT-based assay, non-target Colo 205 cells, FIG. 12
# Procedure: as §1
# [4] = tested on: human Ramos tumor xenografts; experiment: In vivo efficacy of huB4-DM4 against Ramos xenografts in SCID mice; parameters: species or system mouse
# Procedure: The efficacy of huB-DM4 in vivo was determined using SCID mice bearing established human Ramos tumor xenografts. Ramos cells were injected subcutaneously and tumors were allowed to grow to an average size of 100 mm^3. Dosage is expressed as μg DM4 in the conjugate, which corresponds to an antibody dose of approximately 44 μg antibody per μg of DM4. Tumor volume was measured as an indication of treatment efficacy and mouse body weight was monitored to indicate toxicity due to treatment. […] Animals remain without measurable disease for about 35 days in the […] treatment group, and for more than 55 days in the two highest dose groups.
substance,measurement,setting,value
"huB4-DM4: huB4 (anti-CD19) antibody modified with SSNPB and linked to DM4, average of 4.0 DM4 molecules per antibody molecule",cell killing activity toward Ramos cells,[1],potent cell killing activity
same,binding affinity compared with unmodified antibody,[2],comparable to the unmodified antibody
same,toxicity toward CD19-negative cells,[3],No significant toxicity
same,toxicity as judged by changes in body weight,"[4]; SCID mice, single i.v. injection, FIG. 13b",very little if any toxicity
same,tumor response,"[4]; SCID mice, single i.v. injection, doses above 50 μg/kg",complete regression of the tumors in all animals
same,time without measurable disease,"[4]; single i.v. injection, 100 mg/kg treatment group",about 35 days
same,time without measurable disease,"[4]; single i.v. injection, two highest dose groups",more than 55 days
same,anti-tumor activity,"[4]; subcutaneous Ramos tumor model, FIG. 13a",high anti-tumor activity in a dose-dependent manner
same,tumor response,"[4]; subcutaneous Ramos tumor model, doses that are non-toxic, FIG. 13a,b",Complete tumor regressions and cures
